{"source": "paper PMC8360061", "about": "“Search for the Active Ingredients from a 2‐Aminothiazole DMSO Stock Solution with Antimalarial Activity” (Chemmedchem, 2021)", "key": {"[1]": {"biological_target": "PK/LDH (pyruvate kinase and lactate dehydrogenase)", "assay": "PK/LDH auxiliary enzyme assay", "type": "biochemical", "protocol": "Firstly, we performed a temperature‐dependent decomposition study of compound 1 at 10 mM concentration in DMSO at room temperature (RT), +4 °C and −20 °C (SI, Section 2.3). […] Besides visual inspection of the colour changes of the test sample (see Table 2), the decomposition was monitored by HRMS and NMR spectroscopy. […] Furthermore, all three samples were tested for their inhibitory activity against PfIspE after the incubation period. […] In the IspE assay, the activity of the target enzyme is coupled to the oxidation of NADH (which can be followed spectrophotometrically at 340 nm) via a cascade of the auxiliary enzymes pyruvate kinase and lactate dehydrogenase (PK/LDH).[10] […] Three samples of compound 1 were tested in PK/LDH assay (Table 2).\n(§1) 1.1 General Procedure for Enzymatic Assay\n(§2) The cloning, expression and purification of Plasmodium falciparum[1] and Escherichia coli[2,3] and their subsequent assays followed the previously reported procedures .[1] In some specified cases, the tested compound was dissolved in methanol or acetonitrile for the assay .\n(§3) Due to the nature of the study, some decomposition samples w ere only tested once and thus, for some formal standard error, […]\n(§4) For the final purified compounds, replicates were measured and standard deviation was calculated at least from two replicates. […]\n(§5) 2.) Decomposition Study Procedure\n(§6) All reagents and solvents were of commercial quality and used without further purification.\nLow resolution mass analytics and purity controls were carried out using an Ultimate 3000-ISQ liquid-chromatography mass spectrometry (LCMS) system (Thermo Fisher Scientific, Dreieich, Germany) consisting of a Dionex UltiMate pump, an autosampler, DAD detector and an ESI quadrupole mass spectrometer. NMR spectra were recorded on a Bruker AV 500 or Ascend 700 (1H, 500 MHz or 700 MHz; 13C, 126 MHz or 175 MHz; 19F, 470 MHz) spectrometer. All spectra were measured in DMSO -d6, methanol-d4, acetone-d6 or acetonitrile-d3 to which reported"}, "EcIspE": {"biological_target": "T1, EcIspE (Escherichia coli, UniProt P62615)", "T1 construct": "made in house", "T1 sequence (P62615 whole entry)": "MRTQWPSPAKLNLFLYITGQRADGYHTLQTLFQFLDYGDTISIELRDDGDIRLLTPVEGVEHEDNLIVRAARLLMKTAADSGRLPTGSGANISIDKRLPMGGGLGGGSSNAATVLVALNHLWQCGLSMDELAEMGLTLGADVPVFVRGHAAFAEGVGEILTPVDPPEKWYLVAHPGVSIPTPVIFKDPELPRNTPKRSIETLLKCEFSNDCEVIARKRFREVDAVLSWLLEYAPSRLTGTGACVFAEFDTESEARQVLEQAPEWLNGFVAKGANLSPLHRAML", "assay": "EcIspE enzymatic assay (coupled to PK/LDH)", "type": "biochemical", "from_the_text": "Another approach to address this issue is to perform the IspE assay with one or several orthologues of PfIspE. […] The IspE assay setup was identical for both Pf and EcIspE orthologs except for the target enzyme used. One of the setup requirements was that the enzymatic activity of the auxiliary enzymes PK/LDH exceeded the activity of the target enzyme IspE not less than a factor of ten.[10] We investigated, if the inhibition of the auxiliary enzymes may substantially influence the IC50 values obtained from the coupled IspE assay.\nas §1, §2, §3, §4, §5, §6\nLow resolution mass analytics and purity controls were carried out using an Ultimate 3000-ISQ liquid-chromatography mass spectrometry (LCMS) system (Thermo Fisher […]"}, "A549": {"system": "A549", "assay": "Cytotoxicity assay A549", "type": "cell-based", "settings": "Homo sapiens, old sample before becoming aware of the decomposition, read-out: %-inh. A549", "protocol": "as §3, §4\n(§7) 1.3 General Procedure for Cytotoxicity Assay\n(§8) Cytotoxicity assays based on the human lung adenocarcinoma (A549), human embryonic kidney (Hek293) and human hepatocellular carcinoma (HepG2) cell lines were performed as described previously.[7] […]"}, "HEK293": {"system": "HEK293", "assay": "Cytotoxicity assay HEK293", "type": "cell-based", "settings": "Homo sapiens, old sample before becoming aware of the decomposition, read-out: %-inh. HEK293", "protocol": "as §3, §4, §7, §8"}, "HepG2": {"system": "HepG2", "assay": "Cytotoxicity assay HepG2", "type": "cell-based", "settings": "Homo sapiens, old sample before becoming aware of the decomposition, read-out: %-inh. HepG2", "protocol": "as §3, §4, §7, §8"}, "[2]": {"settings": "10 mM DMSO stock stored at +4 °C, measured after 3 months"}, "[3]": {"settings": "10 mM DMSO stock stored at RT, measured after 3 months"}, "[4]": {"settings": "analytical sample, DMSO at RT, 4 days of incubation, dissolved in methanol shortly before the assay"}, "[5]": {"settings": "old decomposed sample, control run at the same time as the temperature study"}}, "data": [{"smiles": "CCn1c(C)cc(-c2csc(Nc3ccccc3C(F)(F)F)n2)c1C", "note": "[Compound 1]", "values": [{"measurement": "IC50", "setting": "[1]; [2]", "result": "45 ± 6", "unit": "µM"}, {"measurement": "IC50", "setting": "[1]; [3]", "result": "34 ± 4", "unit": "µM"}, {"measurement": "IC50", "setting": "[1]; 10 mM stock in DMSO at RT, 7 days of incubation", "result": "48 ± 16", "unit": "µM"}, {"measurement": "IC50", "setting": "[1]; 10 mM stock in DMSO at RT, 9 days of incubation", "result": "57 ± 22", "unit": "µM"}, {"measurement": "IC50", "setting": "[1]; 10 mM stock in DMSO at RT, 12 days of incubation", "result": "2 ± 1", "unit": "µM"}, {"measurement": "IC50", "setting": "[1]; 10 mM stock in DMSO at RT, 14 days of incubation", "result": "50 ± 11", "unit": "µM"}, {"measurement": "IC50", "setting": "[1]; 10 mM stock in DMSO at RT, 16 days of incubation", "result": "86 ± 17", "unit": "µM"}, {"measurement": "IC50", "setting": "[1]; [4]", "result": "95 ± 21", "unit": "µM"}, {"measurement": "IC50", "setting": "[1]; [5]", "result": "40 ± 4", "unit": "µM"}, {"measurement": "IC50", "setting": "EcIspE; [2]", "result": "71 ± 10", "unit": "µM"}, {"measurement": "IC50", "setting": "EcIspE; [3]", "result": "101 ± 14", "unit": "µM"}, {"measurement": "IC50", "setting": "EcIspE; 10 mM DMSO stock stored at −20 °C, measured after 3 months", "result": "> 500", "unit": "µM"}, {"measurement": "IC50", "setting": "EcIspE; analytical sample, DMSO at RT, 0 days of incubation, dissolved in methanol shortly before the assay", "result": "> 500", "unit": "µM"}, {"measurement": "IC50", "setting": "EcIspE; analytical sample, DMSO at RT, 1 day of incubation, dissolved in methanol shortly before the assay", "result": "> 500", "unit": "µM"}, {"measurement": "IC50", "setting": "EcIspE; analytical sample, DMSO at RT, 2 days of incubation, dissolved in methanol shortly before the assay", "result": "> 500", "unit": "µM"}, {"measurement": "IC50", "setting": "EcIspE; analytical sample, DMSO at RT, 3 days of incubation, dissolved in methanol shortly before the assay", "result": 397, "unit": "µM"}, {"measurement": "IC50", "setting": "EcIspE; [4]", "result": "75 ± 16", "unit": "µM"}, {"measurement": "IC50", "setting": "EcIspE; fractions of second purification, dissolved in ACN", "result": "> 1370", "unit": "µM"}, {"measurement": "IC50", "setting": "EcIspE; fractions of second purification, dissolved in MeOH", "result": "> 1370", "unit": "µM"}, {"measurement": "IC50", "setting": "EcIspE; [5]", "result": "32 ± 6", "unit": "µM"}, {"measurement": "inhibition at 100 µM", "setting": "A549", "result": -0.3, "unit": "%"}, {"measurement": "inhibition at 100 µM", "setting": "HEK293", "result": 28, "unit": "%"}, {"measurement": "inhibition at 100 µM", "setting": "HepG2", "result": 44, "unit": "%"}]}]}
